# Measured values from patent publication US20030077709A1 (priority 2000, published 2003).
# What was measured:
# JULF2 [1] = target: T1, JULF2 (Homo sapiens, UniProt Q9NPC1); assay: Screening of compounds which inhibit cAMP inhibition action by LTB4 using JULF2 stably expressing CHO cell; type: cell-based
# T1 construct: expressed in transfected cells
# T1 sequence (Q9NPC1 1-358): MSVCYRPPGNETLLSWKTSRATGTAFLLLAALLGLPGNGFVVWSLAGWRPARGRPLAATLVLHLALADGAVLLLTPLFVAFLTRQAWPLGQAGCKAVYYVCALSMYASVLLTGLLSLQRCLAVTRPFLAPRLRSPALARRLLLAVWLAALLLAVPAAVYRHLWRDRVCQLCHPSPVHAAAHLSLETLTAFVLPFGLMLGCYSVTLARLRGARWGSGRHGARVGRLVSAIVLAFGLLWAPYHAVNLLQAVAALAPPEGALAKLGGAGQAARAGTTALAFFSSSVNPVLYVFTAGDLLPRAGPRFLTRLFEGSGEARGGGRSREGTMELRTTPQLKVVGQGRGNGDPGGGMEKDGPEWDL
# Text: The compound A, compound B and compound C are commercially available reagents, and compound A is on the market as a code number 0199-0032 of ChemDiv, Inc, and compound B as a code number TPB-488 of InterBioScreen. […] In this connection, the property of the compound A to show anti-inflammatory effect is also described in Biochemical Pharmacology, 51, 737-742, 1996.
# JULF2 [2] = target: T1, JULF2; assay: Inhibition of binding of [3H]LTB4 to JULF2 expressing cell membrane fraction
# Procedure: The DNA fragment obtained in Example 1 coding for JULF2 was digested with XbaI and then cloned into pCEP4 (mfd. by Invitrogen) to be used as an expression vector (pCEP4-JULF2) for expressing JULF2. HEK293-EBNA strain was inoculated into a 15 cm Petri dish at a density of 5×10^6 cells and cultured for 1 day, and then 20 μg of pCEP4-JULF2 was subjected to gene transfer using Lipofectamine-2000 (mfd. by Gibco BRL). The gene-transferred cells were recovered 24 hours thereafter, washed, suspended in 20 mM Tris-HCl (pH 7.4)/5 mM EDTA and then homogenized using Polytron. After ultracentrifugation, the sediment was suspended in 20 mM Tris-HCl (pH 7.4) and used as a membrane fraction.
# A liquid scintillation was added to the glass filter and the radioactivity was measured using a liquid scintillation counter.
# [3] = test system: JULF2 stably expressing CHO cell; assay: Cell migration inhibition by JULF2 antagonist for migration of JULF2 stably expressing CHO cell toward LTB4; type: cell-based, human; details: compound 0.03 to 100 μM in upper layer, 100 nM LTB4 in lower layer
# Procedure: (§1) A 8 μm pore polycarbonate frame filter (mfd. by Neuroprobe) was treated with 10 μg/ml fibronectin (Asahi Technoglass)/PBS at 4° C. overnight. […] After 4 hours of culturing at 37° C. in a CO2 incubator, the frame filter was fixed with methanol and stained with Diff-Quik Staining Kit (International Reagents Corporation). The upper surface of this filter (the side on which cells were set) was wiped and air-dried and then absorbance at 595 nm was measured using a plate reader (Molecular Devices). Also, in order to examine pertussis toxin (PTX) sensitivity of the JULF2 stably expressing CHO cells, JULF2 stably expressing CHO cells treated with 50 ng/ml PTX for 20 hours were subjected to a cell migration test (FIG. 2).
# [4] = test system: JULF2 stably expressing CHO cells; assay: Cell migration test of JULF2 stably expressing CHO cells toward LTB4; type: cell-based, human
# Procedure: as §1
# [5] = test system: control vector-introduced CHO cells; assay: cAMP production test toward LTB4 in control vector-introduced CHO cells; type: cell-based; details: 1 μM forskolin, 0 to 1 μM LTB4
# Procedure: The CHO-dhfr(−) strain was inoculated at a density of 1×10^6 cells into a 10 cm Petri dish containing αMEM (supplemented with nucleic acids) medium/10% fetal bovine serum and cultured for 1 day and then subjected to gene transfer of 8 μg of pEF-BOS-dhfr-Jul22 and pEF-BOS-dhfr (control vector) using FuGENE6 (mfd. by Boehringer Mannheim). The gene-transferred cells were recovered 24 hours thereafter, suspended in αMEM (nucleic acid-free) medium/100 nM methotrexate (mfd. by Wako Pure Chemical Industries)/10% fetal bovine serum and then serially diluted and inoculated again into the 10 cm Petri dish. Colonies formed after 2 weeks were separately isolated and used as JULF2 stably expressing CHO cells.
# Each of the JULF2 stably expressing CHO cells and control vector-introduced CHO cells was inoculated into a 24 well plate at a density of 1×10^5 cells. […] After 30 minutes at 37° C., the culture supernatant was discarded and the cells were lysed using a cAMP EIA System (BIOTRAK; mfd. by Amersham) cell lysis solution.
# Measurement of the produced amount of cAMP in cells under each condition was carried out using the cAMP EIA System in accordance with the attached protocol. […] On the other hand, changes in the produced amount of cAMP by the addition of LTB4 were not found in the control vector-introduced CHO cells.
# [6] = test system: rat JULF2 stably expressing CHO cell; assay: Cell migration test of rat JULF2 stably expressing CHO cell toward LTB4; type: cell-based; details: same method of Example 6
# Procedure: as §1
IC50 (JULF2 [1]),IC50 (JULF2 [2]),Compound,inhibition of cell migration toward LTB4 [3],inhibition of migration toward LTB4 by PTX pretreatment ([4]; JULF2 stably expressing CHO cells treated with 50 ng/ml PTX for 20 hours),changes in the produced amount of cAMP by the addition of LTB4 [5],"LTB4 concentration at which the migration activity becomes maximum (bell type chemotaxis) ([4]; JULF2 stably expressing CHO cells, 4 hours at 37° C., LTB4 in lower layer)",LTB4 concentration at which the migration activity becomes maximum (bell type chemotaxis) [6]
6.7 µM,5.7 µM,"CCCCCCOc1ccc(C(=N)NO)cc1 [compound B, 4-hexyloxy-N-hydroxybenzenecarboximidoamide]",inhibit cell migration toward LTB4 in a dose-dependent manner,,,,
0.4 µM,0.1 µM,"CCCCCCCCOc1ccc(C(=N)N)cc1.Cl [compound A, 4-octyloxybenzenecarboximidoamide hydrochloride]",inhibit cell migration toward LTB4 in a dose-dependent manner,,,,
,,pertussis toxin [PTX],,completely inhibited,,,
,,"CCCCC/C=C\C[C@@H](O)/C=C/C=C/C=C\[C@@H](O)CCCC(=O)O [LTB4, leukotriene B4]",,,not found,30 nM,100 nM
